Test results: US20120115907A1, “NOVEL COMPOUNDS AS INHIBITORS OF RENIN” (CADILA HEALTHCARE LIMITED, priority 2009, published 2012)
Structures can show the parent of a compound that is named as a salt.

Biological target: T1, human recombinant renin (Homo sapiens, UniProt P00797)
T1 construct: purchased Cayman 10006270
T1 sequence (P00797 67-406): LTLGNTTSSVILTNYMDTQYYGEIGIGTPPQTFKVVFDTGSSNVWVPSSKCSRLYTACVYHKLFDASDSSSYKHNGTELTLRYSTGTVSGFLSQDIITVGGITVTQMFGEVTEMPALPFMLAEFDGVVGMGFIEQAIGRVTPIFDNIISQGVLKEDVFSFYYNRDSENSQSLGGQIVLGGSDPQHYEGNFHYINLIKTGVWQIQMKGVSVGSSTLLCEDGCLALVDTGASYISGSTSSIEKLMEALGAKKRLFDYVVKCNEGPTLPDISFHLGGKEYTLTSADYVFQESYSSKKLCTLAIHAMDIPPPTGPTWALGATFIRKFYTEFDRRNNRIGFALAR
Experiment: Inhibition of human recombinant renin (modified Cayman renin inhibitor screening assay, fluorescence)
Format: biochemical
Details: for inhibition at 0.01 µM / Renin inhibition (percent inhibition of renin activity) at 0.01 μM: 0.01 μM compound; for inhibition at 0.01 µM / inhibition at 0.1 µM / Renin inhibition (percent inhibition of renin activity) at 0.1 μM / Renin inhibition (percent inhibition of renin activity) at 0.01 μM: 37° C., 30 mins, human recombinant renin; for inhibition at 0.01 µM: read-out: Renin inhibition (percent inhibition of renin activity) at 0.01 μM; for inhibition at 0.1 µM / Renin inhibition (percent inhibition of renin activity) at 0.1 μM: 0.1 μM compound; for inhibition at 0.1 µM: read-out: Renin inhibition (percent inhibition of renin activity) at 0.1 μM
Procedure: In-vitro protocol for the Inhibition of human recombinant renin by the compound of invention • Procedure: The enzymatic in vitro assay was performed in 96 well polypropylene plate (Nunc), using a modified Renin inhibitor screening assay protocol (Cayman, cat no: 10006270). The reaction system comprised assay buffer containing 50 mM Tris-HCL, pH=8.0 & 100 mM sodium chloride, human recombinant rennin (1:20 diluted with fixed activity), synthetic renin substrates (Cayman, cat no: 10006906) (14.4 μM) and different concentrations of renin inhibitors in DMSO in a total reaction system of 100 μl. The entire reaction mixture were incubated at 37° C. for 30 mins and the fluorescence was read at excitation wavelengths of 320-360 nm and emission wavelengths of 490-520 nm. Test compounds efficacy was determined by the percent inhibition of renin activity using Aliskiren (Tekturna) as a reference standard.
Following table represents measured IC50 values of the selected compounds for its inhibition of human recombinant renin.

Row | SMILES | inhibition at 0.01 µM | inhibition at 0.1 µM | further results
1 | COc1ccccc1COCCCOc1ccc(C(=O)N[C@H]2CCNCC2C(=O)N(Cc2cccc(C)c2C)C2CC2)cc1 (stereo partly drawn) [Example 28, (4S)—N-Cyclopropyl-N-(2,3-dimethylbenzyl)-4-(4-(3-((2-methoxybenzyl)oxy)propoxy)benzamido)piperidine-3-carboxamide hydrochloride] | 60% | 93% | 
2 | COCCCOc1cccc(CN(C(=O)C2CNCCC2NC(=O)c2ccc(OCCOc3c(Cl)cccc3Cl)cc2)C2CC2)c1 (stereo not shown) [Example 3, N-Cyclopropyl-4-(4-(2-(2,6-dichlorophenoxy)ethoxy)benzamido)-N-(3-(3-methoxypropoxy)benzyl)piperidine-3-carboxamide] | < 10% | 43% | 
3 | COc1cccc(CN(C(=O)C2CNCC[C@@H]2NC(=O)c2ccc(OCCOc3c(Cl)cc(C)cc3Cl)cc2)C2CC2)c1OC.Cl (stereo partly drawn) [Example 14, (4S)—N-cyclopropyl-4-(4-(2-(2,6-dichloro-4-methylphenoxy)ethoxy)benzamido)-N-(2,3-dimethoxybenzyl)piperidine-3-carboxamide hydrochloride] | 19% |  | Renin inhibition (percent inhibition of renin activity) at 0.1 μM (hydrochloride, 0.1 µM): 66%
4 | Cc1cc(Cl)c(OCCOc2ccc(C(=O)N[C@H]3CCNCC3C(=O)N(Cc3ccc(C)c(C)c3)C3CC3)cc2)c(Cl)c1.Cl (stereo partly shown) [Example 18] |  |  | Renin inhibition (percent inhibition of renin activity) at 0.01 μM: 20%; Renin inhibition (percent inhibition of renin activity) at 0.1 μM: 56%
5 | Cc1cc(Cl)c(OCCOc2ccc(C(=O)NC3CCNCC3C(=O)N(Cc3ccc4ccccc4c3)C3CC3)cc2)c(Cl)c1 (stereo not shown) [Example 12, N-Cyclopropyl-4-(4-(2-(2,6-dichloro-4-methylphenoxy)ethoxy)benzamido)-N-(naphthalen-2-ylmethyl)piperidine-3-carboxamide] | 43% | 89% | IC50: 64 nM
6 | O=C(NC1CCNCC1C(=O)N(Cc1ccc(Cl)cc1Cl)C1CC1)c1ccc(OCCOc2c(Cl)cccc2Cl)cc1 (stereo not shown) [Example 6, N-Cyclopropyl-N-(2,4-dichlorobenzyl)-4-(4-(2-(2,6-dichlorophenoxy)ethoxy)benzamido) piperidine-3-carboxamide] |  |  | Renin inhibition (percent inhibition of renin activity) at 0.01 μM: * (Inactive at tested concentration); Renin inhibition (percent inhibition of renin activity) at 0.1 μM: 40%
7 | COc1ccccc1COCCCOc1ccc(C(=O)N[C@H]2CCNCC2C(=O)N(Cc2cccc(C)c2C)C2CC2)cc1.Cl (stereo partly shown) [Example 27] |  |  | Renin inhibition (percent inhibition of renin activity) at 0.01 μM (hydrochloride): * (Inactive at tested concentration); Renin inhibition (percent inhibition of renin activity) at 0.1 μM (hydrochloride, 0.1 µM): 38%
8 | COc1cccc(CN(C(=O)C2CNCC[C@@H]2NC(=O)c2ccc(OCCOc3c(Cl)cc(C)cc3Cl)cc2)C2CC2)c1OC.Cl (stereo partly drawn) [Example 15, (4S)—N-cyclopropyl-4-(4-(2-(2,6-dichloro-4-methylphenoxy)ethoxy)benzamido)-N-(2,3-dimethoxybenzyl)piperidine-3-carboxamide hydrochloride] |  |  | Renin inhibition (percent inhibition of renin activity) at 0.01 μM (hydrochloride, 0.01 µM): 13%; Renin inhibition (percent inhibition of renin activity) at 0.1 μM (hydrochloride, 0.1 µM): 12%
9 | COc1ccccc1COCCCOc1ccc(C(=O)N[C@H]2CCNCC2C(=O)N(Cc2ccccc2OC)C2CC2)cc1 (stereo partly drawn) [Example 33, (4S)—N-Cyclopropyl-N-(2-methoxybenzyl)-4-(4-(3-((2-methoxybenzyl)oxy)propoxy)benzamido)piperidine-3-carboxamide hydrochloride] | < 10% | 17% | 
10 | COc1ccc(CN(C(=O)C2CNCCC2NC(=O)c2ccc(OCCOc3c(Cl)cc(C)cc3Cl)cc2)C2CC2)cc1OC (stereo not shown) [Example 8, N-Cyclopropyl-4-(4-(2-(2,6-dichloro-4-methylphenoxy)ethoxy)benzamido)-N-(3,4-dimethoxybenzyl)piperidine-3-carboxamide] | < 10% | 41% | 
11 | Cc1cc(C)cc(CN(C(=O)C2CNCCC2NC(=O)c2ccc(OCCOc3c(Cl)cccc3Cl)cc2)C2CC2)c1 (stereo not shown) [Example 4, N-Cyclopropyl-4-(4-(2-(2,6-dichlorophenoxy)ethoxy)benzamido)-N-(3,5-dimethylbenzyl)piperidine-3-carboxamide] | < 10% | 47% | 
12 | COc1ccccc1COCCOc1ccc(C(=O)N[C@H]2CCNCC2C(=O)N(Cc2cccc(C)c2C)C2CC2)cc1 (stereo partly drawn) [Example 16, (4S)—N-Cyclopropyl-N-(2,3-dimethylbenzyl)-4-(4-(2-((2-methoxybenzyl)oxy)ethoxy)benzamido)piperidine-3-carboxamide] | 11% | 52% | 

More lines, main results first:

Row | inhibition at 0.01 µM | inhibition at 0.1 µM | SMILES | further results
13 | 24% | 81% | COc1cccc(CN(C(=O)C2CNCC[C@@H]2NC(=O)c2ccc(OCCOc3c(Cl)cc(C)cc3Cl)cc2)C2CC2)c1C (stereo partly drawn) [Example 37, (4S)—N-Cyclopropyl-4-(4-(2-(2,6-dichloro-4-methylphenoxy)ethoxy)benzamido)-N-(3-methoxy-2-methylbenzyl)piperidine-3-carboxamide hydrochloride] | IC50: 17 nM
14 | 48% | 91% | Cc1cc(Cl)c(OCCOc2ccc(C(=O)N[C@H]3CCNCC3C(=O)N(Cc3cccc(C)c3C)C3CC3)cc2)c(Cl)c1 (stereo partly drawn) [Example 20, (4S)—N-Cyclopropyl-4-(4-(2-(2,6-dichloro-4-methylphenoxy)ethoxy)benzamido)-N-(2,3-dimethylbenzyl)piperidine-3-carboxamide hydrochloride] | IC50: 13 nM
15 | 10% | 83% | Cc1cc(Cl)c(OCCOc2ccc(C(=O)N[C@@H]3CCNCC3C(=O)N(Cc3cccc(C)c3C)C3CC3)cc2)c(Cl)c1 (stereo partly drawn) [Example 24, (4R)—N-Cyclopropyl-4-(4-(2-(2,6-dichloro-4-methylphenoxy)ethoxy)benzamido)-N-(2,3-dimethylbenzyl)piperidine-3-carboxamide hydrochloride] | 
16 | < 10% | 87% | Cc1cc(Cl)c(OCCOc2ccc(C(=O)N[C@H]3CCNCC3C(=O)N(Cc3ccccc3Cl)C3CC3)cc2)c(Cl)c1 (stereo partly drawn) [Example 30, (4S)—N-(2-Chlorobenzyl)-N-cyclopropyl-4-(4-(2-(2,6-dichloro-4-methylphenoxy)ethoxy)benzamido)piperidine-3-carboxamide hydrochloride] | 
17 | 11% | 65% | Cc1cc(Cl)c(OCCOc2ccc(C(=O)N[C@H]3CCNCC3C(=O)N(Cc3ccccc3F)C3CC3)cc2)c(Cl)c1 (stereo partly drawn) [Example 29, (4S)—N-Cyclopropyl-4-(4-(2-(2,6-dichloro-4-methylphenoxy)ethoxy)benzamido)-N-(2-fluorobenzyl)piperidine-3-carboxamide hydrochloride] | 
18 | < 10% | 40% | Cc1cc(Cl)c(OCCOc2ccc(C(=O)N[C@@H]3CCNCC3C(=O)N(Cc3ccc(C)c(C)c3)C3CC3)cc2)c(Cl)c1 (stereo partly drawn) [Example 22, (4R)—N-Cyclopropyl-4-(4-(2-(2,6-dichloro-4-methylphenoxy)ethoxy)benzamido)-N-(3,4-dimethylbenzyl)piperidine-3-carboxamide hydrochloride] | 
19 | < 10% | 44% | Cc1cc(C)cc(CN(C(=O)C2CNCCC2NC(=O)c2ccc(OCCOc3c(Cl)cc(C)cc3Cl)cc2)C2CC2)c1 (stereo not shown) [Example 10, N-Cyclopropyl-4-(4-(2-(2,6-dichloro-4-methylphenoxy)ethoxy)benzamido)-N-(3,5-dimethylbenzyl)piperidine-3-carboxamide] | 
20 | 60% | 95% | Cc1cc(Cl)c(OCCOc2ccc(C(=O)N[C@H]3CCNCC3C(=O)N(Cc3cccc(Cl)c3Cl)C3CC3)cc2)c(Cl)c1 (stereo partly drawn) [Example 35, (4S)—N-Cyclopropyl-4-(4-(2-(2,6-dichloro-4-methylphenoxy)ethoxy)benzamido)-N-(2,3-dichlorobenzyl)piperidine-3-carboxamide hydrochloride] | 
21 | 42% | 81% | Cc1cc(Cl)c(OCCOc2ccc(C(=O)NC3CCNCC3C(=O)N(Cc3ccc(Cl)cc3Cl)C3CC3)cc2)c(Cl)c1 (mixture of isomers) [Example 5, N-Cyclopropyl-4-(4-(2-(2,6-dichloro-4-methylphenoxy)ethoxy)benzamido)-N-(2,4-dichlorobenzyl)piperidine-3-carboxamide] | IC50: 39 nM
